These results are taken from patent US20020043656A1, “GREEN ORGANIC LUMINOPHOR” (priority 2000, published 2002).

Read-outs that look alike come from different tables or passages of the source.

For data set [1] the following is noted: cited from earlier work; for Luminescence in toluene λmax: prior art analogs.
The conditions of data set [2]: cited from earlier work; for Luminescence in toluene η (quantum yield): prior art analogs; for quantum yield η: prior art, medium not stated.
A short description of data set [3]: Absolute fluorescence quantum yield, equal absorption technique. Format: physicochemical. As to the method: The absolute quantum yield was determined using the equal absorption technique (A. S. Cherkasov, Z. Fiz. Khim. 29, 2209, […]).
Data set [4] is described as follows: Fluorescence (luminescence) spectra. Type of data set: physicochemical. The note with it: for Luminescence in toluene λmax: 365 nm excitation. The method, then: Fluorescence spectra in toluene were measured and absolute fluorescence quantum yields in crystals were determined.
The fluorescence spectra were measured using a setup including a 3MR-3 mirror monochromator, a FEU-1 8 photomultiplier, an M-95 microampermeter. A SVDT-95 lamp was used as the excitation source, the 365 nm exciting line was singled out of its spectrum.

Data set [5] can be described thus: Electron absorption spectra / extinction. Format: physicochemical. From the text:
The compound structure was confirmed by electron absorption spectra and IR ones.

For data set [6] the following is noted: prior art, cited from earlier work.
For data set [7] the following is noted: prior art; cited from earlier work.
The conditions of data set [8]: various reagents; prior art; cited from earlier work.

Take `COc1cccc2c(-c3ccc(N(C)C)cc3)c3nn(C)cc3nc12` [Prior art structure analog, 2-methyl-5-methoxy-9-(4-dimethylaminophenyl)-2H-pyrazolo[4,3-b]quinoline]: in data set [1], the “Luminescence in toluene λmax” value is 510 nm. For the same molecule, in data set [1] (prior art, medium not stated), the λmax.lum is recorded as 510 nm. Besides, in data set [2], the “Luminescence in toluene η (quantum yield)” value (“Luminescence in toluene η” for short) was 0.8 and the “quantum yield η” value is on record as 0.8.
For “1-phenyl-5-(p-methoxyphenyl)-3-[1,8-naphthoylene-1′,2′-benzimidazol-4-yl]-2-pyrazol”, the “Luminescence in toluene η” value in data set [3] (in toluene solution) was found to be 0.85. The quantum yield entry in data set [3] (medium not stated) is listed as “approximately 0.82+0.05”. Moreover, in data set [3] (solid state (vacuum-deposited film)), the “quantum yield of photoluminescence η” value turned out to be 0.78. In addition, the “Luminescence in toluene λmax” value in data set [4] is recorded as 510 nm; in data set [4] (listed as Example 1), 495 nm. In addition, the λmax.lum in data set [4] (medium not stated) is given as greater than 510 nm. The “maximum absorption (extinction coefficient)” value in data set [5] is reported as ≤ 30,000. In data set [5] (in toluene), the “Absorption λ” value came out at 412 nm.
As to `O=c1c2cccc3cccc(c32)c2nc3ccccc3n12` [Prior art emission range analog, 1,8-naphthoylene-1′,2′-benzimidazol], the “luminescence spectral maximum wavelength” value in data set [1] (depending on the luminophor concentration) was 490 to 510 nm. Also, the “Luminescence in toluene λmax” value in data set [1] was 490 nm. Further, in data set [6] (organic media), the “solubility in organic media” value was “soluble in organic media”. In addition, the solubility in water result in data set [6] (water) is “essentially water-insoluble”. Also, the “extinction coefficient in the absorption maximum” value in data set [7] is given as 8000. Besides, in data set [2], the “Luminescence in toluene η” value is reported as 0.5 and the “quantum yield η” value was greater than 0.5. For the same molecule, the “Luminescence in toluene η” value in data set [2] (listed as Lumogen yellow-green) was greater than 0.5. Moreover, the chemical stability result in data set [8] is on record as “chemically stable against various reagents”.
